Experimental data taken from BindingDB's records for doi:10.1021/acs.jmedchem.1c01681 (Second Military Medical University, 2021).

Experiment: Inhibition of SARS-CoV-2 spike glycoprotein expressed in HEK293T cells transfected with pAAV-CAG-HnCovS-RFP assessed as inhibition of membrane fusion to Huh-7 cells expressing hACE2 measured after 4 hrs by cell-cell fusion based fluorescence assay

**Q.** With `CC[C@H](C)[C@H](NC(=O)CNC(=O)[C@H](CO)NC(=O)[C@@H](NC(=O)[C@H](CC(=O)O)NC(C)=O)[C@@H](C)CC)C(=O)N[C@@H](CC(N)=O)C(=O)N[C@@H](C)C(=O)N[C@@H](CO)C(=O)N[C@H](C(=O)N[C@H](C(=O)N[C@@H](CC(N)=O)C(=O)N[C@H](C(=O)N[C@@H](CCC(N)=O)C(=O)N[C@@H](CCCCN)C(=O)N[C@@H](CCC(=O)O)C(=O)N[C@H](C(=O)N[C@@H](CC(=O)O)C(=O)N[C@@H](CCCNC(=N)N)C(=O)N[C@@H](CC(C)C)C(=O)N[C@@]1(C)CCCC=CCCC[C@@](C)(C(=O)N[C@@H](CC(N)=O)C(=O)N[C@@H](CC(C)C)C(=O)N[C@@H](CC(N)=O)C(=O)N[C@@H](CCC(=O)O)C(=O)N[C@@H](CO)C(=O)N[C@@H](CC(C)C)C(=O)N[C@H](C(=O)N[C@@H](CC(=O)O)C(=O)N[C@@H](CC(C)C)C(=O)N[C@@H](CCC(N)=O)C(=O)N[C@@H](CCC(=O)O)C(=O)N[C@@H](CC(C)C)C(N)=O)[C@@H](C)CC)NC(=O)[C@H](C)NC(=O)[C@H](C(C)C)NC(=O)[C@H](CCC(=O)O)NC1=O)[C@@H](C)CC)[C@@H](C)CC)C(C)C)C(C)C` as the compound, how does the EC50 read?
**A.** Its EC50 is 5 µM.
